Patent publication US8592421B2, “Cyclic bioisosters of purine system derivatives and a pharmaceutical composition based thereon” (priority 2003, dated 2013)

Assays:
thrombocytes = test: ADP-induced aggregation of thrombocytes in vitro (Born method, plasma enriched with thrombocytes); format: cell-based, rabbit; conditions: 3-minute incubation, ADP 10^−5 M
Experimental: The aggregation of thrombocytes was studied by the Born method based on determination of the changes in the optical density of plasma enriched with thrombocytes after its incubation with an aggregation inductor.
Adenozinediphosphoric acid (ADP) was selected as an aggregation inductor, which in fact is an aggregation generator. Use was made of a sample (registration number 885) of the Sigma Diagnostics Company (USA) in final concentration of 10^−5 M.
The experiments were carried out on male rabbits of the “Chinchilla” breed having a mass of 2.7±0.3 kg. 18-24 hours prior to the experiment they were deprived of feed while preserving free access to water.
To obtain plasma enriched with thrombocytes, blood was taken from a cut of a marginal vein of the rabbit ear, the sample was stabilized with 3.8% of sodium citrate solution in a ratio of 9:1 and centrifuged at 200 g (1000 rev/min) for 10 minutes. The top supernatant layer enriched with thrombocytes was transferred by an automatic dropper into a silicone test tube and kept at 37° C. The plasma enriched with thrombocytes contained, on the average, […]. If this content exceeded the specified 3×10^8 blood platelets in 1 liter, this sample was diluted to the necessary concentration with plasma deprived of thrombocytes, which was obtained by centrifuging blood at 650 g during 10 minutes.
The measurements of the optical density of the samples were made on two-channel aggregometer of the “Chronolog” Company (USA). A flask containing 490 mkl of plasma rich with thrombocytes was placed in a device, into which a magnetic agitator covered with Teflon was lowered. The index of maximum amplitude of aggregation (MA) in percent of a fall of the plasma optical density under effect of the aggregation inductor was recorded. The control index MA of plasma was compared with the MA of plasma incubated for 3 minutes with different concentrations of the compounds: from 10^−3 to 10^−7 in vitro experiments or with plasma obtained 15, 30, 60 and 120 minutes after intravenous administration of different doses of the compounds in vivo experiments.
The process of aggregation of thrombocytes was recorded with the help of a computer; on the monitor screen the there were depicted curves reflecting changes of the optical density of the plasma enriched which was taken as a standard 100% compared to the optical density of the non-thrombocyte plasma taken for 0% content of thrombocytes.
Under in vitro conditions a flask was filled with blood plasma enriched with thrombocytes, to which an aggregation inductor ADP was added at a concentration of 10^−5 M, incubated for 3 minutes, and then the compounds according to the invention were introduced directly into the flask. Their action by aggregation of thrombocytes was studied after 3-minute incubation in a wide range of concentrations from 10^−3 to 10^−7 M to minimum concentration of 10^−7M not inducing no effect of suppressing the aggregation.

[1] = Electrochemical activity: polarographic reduction on mercury dripping electrode; format: physicochemical; conditions: for i: 2.0% sodium chloride background, 9·10^−4 M; for i / −E1/2: 37° C., forward trace, average for the group of compounds; for −E1/2: vs SCE
Experimental: The study was carried out on a general-purpose polarograph PU-1 with a two-coordinate recorder of the “LKD” type using a three-electrode thermostatically controlled polarographic cell and mercury dripping electrode (MDE) with forced separation of the drop and a dropping period of 0.5 second. A platinum wire was used as an auxiliary electrode and a saturated calomel electrode (SCE) was used as a control electrode.
2.0% solutions of sodium chloride having pH 7.0, 7.2, 7.4, 7.6 were used as a background; the pH values of the background solution were corrected by a solution of sodium hydroxide. The polarographic cell was filled with 5.0 ml of the background solution and for 5 minutes was purged with nitrogen for removing the dissolved oxygen. Then 0.5 ml of solution of the studied substance was added to the background solution, and the polarogram was recorded as a polarographic wave. The concentration of the compounds in the polarographic cell was 9·10^−4 M.
The pH was measured on the pH-meter with an accuracy of +0.05 pH units. The polarographic measurements were carried out at a temperature of 37° C. The recording of polarograms of the investigated materials was effected under conditions of DC current at a scanning rate of the potential 10.0 mV/s with a active scanning stroke from a potential 0 to −0.5 V and sweep retrace from a −0.5 V to 0. The electric-current sensitivity was 5.0 mkA. The scale by the coordinate of the potentials was 50.0 mV/cm. The values of potentials of the half-wave E1/2 of the investigated materials are given with respect to the SCE potential.
The polarogram parameters such as a limiting current ilim and E1/2 were determined by the graphic method. The number of electrons participating in the reaction was calculated on the basis of the analysis of the polarographic wave using the Geirovsky-Ilkovich equation.
The calculation of the number of electrons participating in the reduction reaction was effected using the Geirovsky-Ilkovich equation: […]

[2] = tested on: embryonic fibroblasts of mouse NIH-3T3; conditions: cells of mice NSO and NIH-3T3, 1-5 mkM, within 15-20 minutes; cited from earlier work
[3] = tested on: embryonic fibroblasts of mouse NIH-3T3; test: Effect on endocellular pHi of fibroblasts (microspectrofluorimetry with FDA / BCECF-AM); format: cell-based; conditions: 10 mkM in medium with serum
Experimental: The effect of the compounds according to the invention on the endocellular pH, embryonic fibroblasts of mouse NIH-3T3 supplied by the All-Russian Collection of Cellular Cultures of the Institute of Cytology of the Russian Academy of Sciences St. Petersburg was investigated. The cells were grown in the DMEM (Sigma) medium containing 2.2 g/l of sodium bicarbonate with addition of 80.0 mkg/ml of gentamicin and 10.0% embryonal veal serum at a temperature of 37° C. in an atmosphere containing 5.0% of carbon dioxide. For these experiments use was also made of a medium buffer with 5.0 mM of HEPES and 15.0 mM of sodium bicarbonate without serum or with addition of 5.0% serum. The cells were calculated with the help of a hemocytometer. A share of the dead cells was determined by colouring trypan blue.
The measurements of the endocellular pHi were carried out with the help of colorants FDA (Sigma) and BCECF-AM (Calbiochem) on a microspectrofluorimeter by a standard technique (Koshevoy Yu. V., Akatov V. S., Grobova M. E. Microspectrofluorimeter for measuring endocellular pH (micro pH)”. Devices and equipment for studies in the field of physical-and-chemical biology and biotechnology. Pushchino, 1990. P. 8-14).
The cells at a temperature of 37° C. were colored within 5 minutes with 5.0 mkM PDA that before the colouring was prepared from a 10.0 mM solution in acetone by dilution for 30 minutes in a phosphatic buffer to 0.1 mM or 2.0 mkM 1.0 mM solution BCECF-AM in DMSO.
The two-wave method of determining pHi was used based on the ratio intensities of fluorescence of the cells on two wavelengths (Akatov V. S. et all), “Endocellular pH and substrate dependence of proliferation of fibroblasts of Chinese hamster, Cytology, 1991, 33 (7), p. 86-94). The fluorescence was excited by light at λ=490 nm, the emission was recorded simultaneously with two photomultipliers on wavelengths λ=535 nm and λ=570 nm. The K-ratio of the fluorescence on two wavelengths was determined with a deduction of the background fluorescence of the medium near the investigated cells for 40-60 individual cells, which are then averaged taking into account the measurement error. A thermostatically controlled table was used that allowed measurements to be conducted at a temperature of 37° C. An account was taken for the photodynamic damage of the pigmented cells during long-time continuous illumination by excited light. The readings were taken from a section of the preparation exposed to light for not more than 5 minutes.
The calibration curves for determining the absolute pHi values by magnitude K were constructed using the Thomas technique (Thomas J. A., Bushbaum R. N., Zimniak A. w Racker E. “Intracellular pH measurements in Ehrlich ascites tumor cells utilizing spectroscopic probe generated in situ”, Biochemistry, 1979, v. 18, p. 2210-2218), for which case the pigmented cells treated for 5-10 minutes with carboxyacidic nigericyn (Calbiochem) at a concentration of 5-10 mkg/ml was placed in a solution with a high content of potassium—130 mM KCl, 1.0 mM MgCl2, 20.0 mM of HEPES) and with pH values from 6.2 to 7.6. The K values were measured in the media with different pH assuming that pHi of the cells equals to the pH of the medium due to the action of nigericyn, which exchanges potassium ions for protons and at a high content of potassium in the medium counterbalances the pH of the medium and cells. Calibration curves were used based on the fluorescence of same medium with addition of 5.0 mkM of fluorescence or BCECF were used to the control the stability of the of the instrument readings.
The cells were colored by pigment BCECF-AM and pHi was measured 10 minutes after incubation in the medium with an appropriate pH value. […]

| Structure (SMILES) | MA - fall of optical density of plasma, % to the standard (thrombocytes; 10^−3 M, control 60.8 ± 3.4) [%] | MA - fall of optical density of plasma, % to the standard (thrombocytes; 10^−4 M, control 60.0 ± 2.1) [%] | MA - fall of optical density of plasma, % to the standard (thrombocytes; 10^−5 M, control 52.5 ± 2.1) [%] | MA - drop of optical density, % (thrombocytes; 10^−6 M, control 52.8 ± 1.8) [%] | MA - drop of optical density, % (thrombocytes; 10^−7 M, control 51.5 ± 2.1) [%] | number of electrons participating in the reduction reaction ([1]; calculated with Geirovsky-Ilkovich equation) | i ([1]; pH 7.0) [mkA] | −E1/2 ([1]; pH 7.0) [V] | i ([1]; pH 7.2) [mkA] | −E1/2 ([1]; pH 7.2) [V] | i ([1]; pH 7.4) [mkA] | −E1/2 ([1]; pH 7.4) [V] | i ([1]; pH 7.6) [mkA] | −E1/2 ([1]; pH 7.6) [V] | half-wave potential more positive at reverse stroke compared to forward stroke ([1]; polarograms of reverse stroke) [mV] | increase of pHi [2] [unit] | rise of pHi [3] [pH unit] |
| --- | --- | --- | --- | --- | --- | --- | --- | --- | --- | --- | --- | --- | --- | --- | --- | --- | --- |
| O=c1[nH]n([C@@H]2O[C@H](CO)[C@@H](O)[C@H]2O)c(=O)c2nccc(O)c12.[Na].[Na] [Compound 4, disodium salt of 4-hydroxy-7-(βD-ribofuranosile)pyrido[2,3-d]-6H-pyridazine-5,8-dione] | 49.2 ± 2.3 | 50.2 ± 2.0 | 46.2 ± 3.1 | 50.6 ± 3.1 | 49.9 ± 3.4 |  |  |  |  |  |  |  |  |  |  |  |  |
| O=c1[nH]n([C@@H]2O[C@H](CO)[C@@H](O)[C@H]2O)c(=O)c2ccccc12.[Na] [Compound 9, sodium salt of 2-(β-D-ribofuranosile)benzo[d]-3H-pyridazine-1,4-dione] | 47.3 ± 2.0 | 53.1 ± 1.8 | 41.4 ± 3.4 | 49.4 ± 3.2 | 51.2 ± 1.7 |  |  |  |  |  |  |  |  |  |  |  |  |
| Nc1cccc2c(=O)n([C@@H]3O[C@H](CO)[C@@H](O)[C@H]3O)[nH]c(=O)c12.[Na] [Compound 10, sodium salt of 5-amino-2-(CP (β-D-ribofuranosile)benzo[d]-3H-pyridazine-1,4-dione] | 46.2 ± 2.7 | 48.7 ± 2.4 | 40.2 ± 4.0 | 48.4 ± 2.4 | 49.8 ± 2.0 | 4.09 | 0.23 ± 0.03 | 0.092 ± 0.02 | 0.30 ± 0.01 | 0.09 ± 0.01 | 0.29 ± 0.02 | 0.092 ± 0.02 | 0.31 ± 0.02 | 0.09 ± 0.01 | 30.0 |  |  |
| Nc1cnc2c(=O)[nH][nH]c(=O)c2n1.[Na] [Compound 28, sodium salt of 2-amino-pyrazine[2,3-d]-6H-pyridazine-5,8-dione] | 49.7 ± 2.2 | 48.9 ± 2.4 | 44.2 ± 2.7 |  | 50.4 ± 3.0 |  |  |  |  |  |  |  |  |  |  |  |  |
| Nc1ncnc2c(=O)n([C@@H]3O[C@H](CO)[C@@H](O)[C@H]3O)[nH]c(=O)c12.[Na] [Compound 31, sodium salt of 4-amino-7-(β-D-ribofuranosile)pyrimido[4,5-d]-6H-pyridazine-5,8-dione] | 44.9 ± 2.3 | 46.7 ± 2.2 | 39.9 ± 2.1 | 47.5 ± 1.7 | 49.5 ± 1.2 |  |  |  |  |  |  |  |  |  |  |  |  |
| CC[C@@]1([C@@H]2O[C@@H]([C@H]3O[C@@](O)(CO)[C@H](C)C[C@@H]3C)C[C@@H]2C)CC[C@H]([C@]2(C)CC[C@]3(C[C@H](O)[C@@H](C)[C@@H]([C@@H](C)[C@@H](OC)[C@H](C)C(=O)O)O3)O2)O1 [monensine, reference compound] |  |  |  |  |  |  |  |  |  |  |  |  |  |  |  | 0.2 | 0.12 |
